Measurements as given in PMC9887116, “SDI-118, a novel procognitive SV2A modulator: First-in-human randomized controlled trial including PET/fMRI assessment of target engagement” (Frontiers in Pharmacology, 2023).

Experiments:
[1] = target: human recombinant SV2A (hSV2A) (Homo sapiens, UniProt Q7L0J3); experiment: in vitro radioligand binding study using human recombinant SV2A; settings: read-out: half maximal inhibitory concentration (IC50)
Excerpt: ([Löscher et al., 2016]). […] ([Lynch et al., 2004]; [Matagne et al., 2008]).

[2] = system: screening panel of receptors and enzymes; experiment: screening panel of receptors and enzymes; settings: up to a concentration of 10 µM
Procedure: There were no SAEs or adverse events leading to subject discontinuation from the study. […] The most frequently reported drug related TEAEs were dizziness, hypersomnia, and somnolence, the latter reported only at the highest dose tested (i.e. 80 mg). The onset time of these events was generally short after dose administration, and their duration was usually short with resolution on the same day of dosing or the day after at the most. These mild and transient side effects started at the 10 mg dose and were also observed at higher doses. […] Occupancy at the higher doses would then progressively increase to a maximum of 96% of the predicted maximum at the 80 mg dose. Thus, the observed mild and transient side effects could be consistent with a target related effect seen, in some individuals, at occupancy levels greater than ∼60%. […] Further studies will elucidate this. None of the observed clinically significant changes in vital signs, laboratory parameters, and ECG intervals during the study were considered related to the administration of SDI-118.

[3] = food effect on pharmacokinetics, Part C; type: in vivo, human (healthy male subjects); settings: 10 mg
Procedure: Blood samples for PK analysis were taken at regular time-points up to approximately 96 h post-dose in Part A and C. During the study, a protocol amendment was approved to extend the PK sampling scheme to include samples up to approximately 144 h post-dose, starting from the fourth dosing period. The rationale for this amendment was a longer than anticipated terminal elimination half-life of SDI-118 as concluded from preliminary PK data of the first three dosing periods. Plasma concentrations of SDI-118 were assayed using a GLP validated UPLC/MS-MS method. This method is linear for a range of concentrations from 0.200 to 500 ng/ml, with a lower limit of quantification (LLOQ) of 0.200 ng/ml. The following PK parameters were estimated: maximum plasma concentration Cmax, time of maximum plasma concentration Tmax, area under the plasma concentration versus time curve AUC, AUC0-last (up to the last quantifiable concentration Clast), AUCinf (extrapolated to infinity), and apparent terminal elimination half-life t½. Dose proportionality of SDI-118 Cmax, AUC0-last, and AUCinf from Part A was calculated based on a mixed-effect power model. Food effect on SDI-118 Cmax, AUC0-last, and AUCinf from Part C was calculated using a 90% confidence interval (CI) on geometric mean ratios (fed/fasted) based on a mixed-effect analysis of variance (ANOVA) with median difference in Tmax with 90% CI. Major interaction was excluded if the 90% CI on AUC and Cmax ratios (fed/fasted) were within the 50%–200% boundaries. The food effect assessment in Part C was performed on a secondary population, i.e. the PK completers set, which excluded one subject who discontinued the study after one dosing period (cfr. infra).

SV2A = experiment: minimum anticipated biological effect level in experimental rodent models; type: in vivo
Procedure: The study consisted of three parts. […] No stratification was performed.

[4] = first-in-human single oral dose safety and tolerability (adverse events)
Procedure: The study consisted of three parts. Part A was a double-blind, placebo-controlled (in a 6:2 SDI-118:placebo ratio), single ascending oral dose study performed in 16 subjects equally divided into two cohorts. […] Dose levels of .3, 1, 3, 10, 30, 60, 90 and 120 mg of SDI-118 were set to be administered in an alternating panel design with a minimum washout period of 7 days between subsequent periods. In each period two different sentinel subjects were dosed (in a 1:1 SDI-118:placebo ratio) and followed-up for safety for at least 48 h before the rest of the cohort received the same dose level of the study drug.
Safety and tolerability were assessed by questioning for adverse events (AEs), vital signs measurements (supine and orthostatic), 12-lead ECGs (always acquired in triplicate except during screening and post-study visit), standard lab safety tests on blood and urine samples, and physical and neurological examinations at regular time-points throughout the study.

[5] = all subjects (n = 32), all single doses pooled
[6] = all subjects (n = 32), only at 80 mg

human recombinant SV2A (hSV2A), sequence (Q7L0J3 whole entry): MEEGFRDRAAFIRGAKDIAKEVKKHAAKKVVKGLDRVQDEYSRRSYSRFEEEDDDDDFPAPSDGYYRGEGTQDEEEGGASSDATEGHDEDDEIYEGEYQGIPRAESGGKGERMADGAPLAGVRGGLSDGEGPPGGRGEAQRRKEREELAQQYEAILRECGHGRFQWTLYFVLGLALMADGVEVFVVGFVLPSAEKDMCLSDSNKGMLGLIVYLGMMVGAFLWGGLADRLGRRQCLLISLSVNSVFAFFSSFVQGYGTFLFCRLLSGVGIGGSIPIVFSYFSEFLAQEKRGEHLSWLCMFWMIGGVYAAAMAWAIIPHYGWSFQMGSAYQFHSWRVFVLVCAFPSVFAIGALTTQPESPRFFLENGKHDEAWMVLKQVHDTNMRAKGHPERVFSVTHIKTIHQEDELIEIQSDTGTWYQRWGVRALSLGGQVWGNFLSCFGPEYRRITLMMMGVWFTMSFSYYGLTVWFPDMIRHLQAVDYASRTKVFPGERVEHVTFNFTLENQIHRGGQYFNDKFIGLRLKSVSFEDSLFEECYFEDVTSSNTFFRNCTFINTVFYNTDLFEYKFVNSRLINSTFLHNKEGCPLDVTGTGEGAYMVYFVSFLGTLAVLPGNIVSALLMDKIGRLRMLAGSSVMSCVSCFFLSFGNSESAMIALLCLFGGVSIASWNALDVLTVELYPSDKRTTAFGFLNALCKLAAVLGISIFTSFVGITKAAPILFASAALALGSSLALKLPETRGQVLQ

O=C1C[C@H](c2cc(F)c(F)c(F)c2)CN1Cn1ncnc1Cl [SDI-118]
IC50 [1]: 13 nM | activity in screening panel of receptors and enzymes [2]: no activity was observed | median Tmax ([3]; fasting state): 1.5 h | median Tmax ([3]; fed state (standardized high fat meal)): 4.0 h | effect of food on extent of exposure (Cmax, AUC0-last, AUCinf) ([3]; fed vs fasted (n = 8)): No clinically relevant effect of food | SV2A occupancy at which MABEL appeared to start (SV2A): approximately 10% | dizziness, drug related TEAE, number of events [4, 5]: 12 events | dizziness, drug related TEAE, number of subjects [4, 5]: nine | hypersomnia, drug related TEAE, number of events [4, 5]: 6 events | hypersomnia, drug related TEAE, number of subjects [4, 5]: five | somnolence, drug related TEAE, number of events [4, 6]: 2 events | somnolence, drug related TEAE, number of subjects [4, 6]: two | All drug related TEAEs: N (%) (number of subjects) ([4]; single oral dose 1 mg (N=8)): 1 (12.5) N (%) | All drug related TEAEs: No. (number of observations) ([4]; single oral dose 1 mg (N=8)): 1 | Headache, drug related TEAE: N (%) (number of subjects) ([4]; single oral dose 1 mg (N=8)): 1 (12.5) N (%) | Headache, drug related TEAE: No. (number of observations) ([4]; single oral dose 1 mg (N=8)): 1 | Nervous System Disorders, drug related TEAEs: N (%) (number of subjects) ([4]; single oral dose 1 mg (N=8)): 1 (12.5) N (%) | Nervous System Disorders, drug related TEAEs: No. (number of observations) ([4]; single oral dose 1 mg (N=8)): 1 | All drug related TEAEs: N (%) (number of subjects) ([4]; single oral dose 3 mg (N=6)): 1 (16.7) N (%) | All drug related TEAEs: No. (number of observations) ([4]; single oral dose 3 mg (N=6)): 1 | Cardiac Disorders, drug related TEAEs: N (%) (number of subjects) ([4]; single oral dose 3 mg (N=6)): 1 (16.7) N (%) | Cardiac Disorders, drug related TEAEs: No. (number of observations) ([4]; single oral dose 3 mg (N=6)): 1 | Postural Dizziness, drug related TEAE: N (%) (number of subjects) ([4]; single oral dose 3 mg (N=6)): 1 (16.7) N (%) | Postural Dizziness, drug related TEAE: No. (number of observations) ([4]; single oral dose 3 mg (N=6)): 1 | All drug related TEAEs: N (%) (number of subjects) ([4]; single oral dose 10 mg (N=16)): 4 (66.7) N (%) | All drug related TEAEs: No. (number of observations) ([4]; single oral dose 10 mg (N=16)): 5 | Blurred vision, drug related TEAE: N (%) (number of subjects) ([4]; single oral dose 10 mg (N=16)): 1 (16.7) N (%) | Blurred vision, drug related TEAE: No. (number of observations) ([4]; single oral dose 10 mg (N=16)): 1 | Dizziness, drug related TEAE: N (%) (number of subjects) ([4]; single oral dose 10 mg (N=16)): 1 (16.7) N (%) | Dizziness, drug related TEAE: No. (number of observations) ([4]; single oral dose 10 mg (N=16)): 1 | Eye Disorders, drug related TEAEs: N (%) (number of subjects) ([4]; single oral dose 10 mg (N=16)): 1 (16.7) N (%) | Eye Disorders, drug related TEAEs: No. (number of observations) ([4]; single oral dose 10 mg (N=16)): 1 | Fatigue, drug related TEAE: N (%) (number of subjects) ([4]; single oral dose 10 mg (N=16)): 1 (16.7) N (%) | Fatigue, drug related TEAE: No. (number of observations) ([4]; single oral dose 10 mg (N=16)): 1 | General Disorders, drug related TEAEs: N (%) (number of subjects) ([4]; single oral dose 10 mg (N=16)): 1 (16.7) N (%) | General Disorders, drug related TEAEs: No. (number of observations) ([4]; single oral dose 10 mg (N=16)): 1 | Hypersomnia, drug related TEAE: N (%) (number of subjects) ([4]; single oral dose 10 mg (N=16)): 2 (33.3) N (%) | Hypersomnia, drug related TEAE: No. (number of observations) ([4]; single oral dose 10 mg (N=16)): 2 | Nervous System Disorders, drug related TEAEs: N (%) (number of subjects) ([4]; single oral dose 10 mg (N=16)): 3 (50.0) N (%) | Nervous System Disorders, drug related TEAEs: No. (number of observations) ([4]; single oral dose 10 mg (N=16)): 3 | All drug related TEAEs: N (%) (number of subjects) ([4]; single oral dose 20 mg (N=8)): 4 (50.0) N (%) | All drug related TEAEs: No. (number of observations) ([4]; single oral dose 20 mg (N=8)): 4 | Dizziness, drug related TEAE: N (%) (number of subjects) ([4]; single oral dose 20 mg (N=8)): 4 (50.0) N (%) | Dizziness, drug related TEAE: No. (number of observations) ([4]; single oral dose 20 mg (N=8)): 4 | Nervous System Disorders, drug related TEAEs: N (%) (number of subjects) ([4]; single oral dose 20 mg (N=8)): 4 (50.0) N (%) | Nervous System Disorders, drug related TEAEs: No. (number of observations) ([4]; single oral dose 20 mg (N=8)): 4 | All drug related TEAEs: N (%) (number of subjects) ([4]; single oral dose 40 mg (N=6)): 3 (50.0) N (%) | All drug related TEAEs: No. (number of observations) ([4]; single oral dose 40 mg (N=6)): 4 | Dizziness, drug related TEAE: N (%) (number of subjects) ([4]; single oral dose 40 mg (N=6)): 3 (50.0) N (%) | Dizziness, drug related TEAE: No. (number of observations) ([4]; single oral dose 40 mg (N=6)): 3 | Hypersomnia, drug related TEAE: N (%) (number of subjects) ([4]; single oral dose 40 mg (N=6)): 1 (16.7) N (%) | Hypersomnia, drug related TEAE: No. (number of observations) ([4]; single oral dose 40 mg (N=6)): 1 | Nervous System Disorders, drug related TEAEs: N (%) (number of subjects) ([4]; single oral dose 40 mg (N=6)): 3 (50.0) N (%) | Nervous System Disorders, drug related TEAEs: No. (number of observations) ([4]; single oral dose 40 mg (N=6)): 4 | All drug related TEAEs: N (%) (number of subjects) ([4]; single oral dose 60 mg (N=6)): 3 (50.0) N (%) | All drug related TEAEs: No. (number of observations) ([4]; single oral dose 60 mg (N=6)): 4 | Cardiac Disorders, drug related TEAEs: N (%) (number of subjects) ([4]; single oral dose 60 mg (N=6)): 1 (16.7) N (%) | Cardiac Disorders, drug related TEAEs: No. (number of observations) ([4]; single oral dose 60 mg (N=6)): 1 | Dizziness, drug related TEAE: N (%) (number of subjects) ([4]; single oral dose 60 mg (N=6)): 2 (33.3) N (%) | Dizziness, drug related TEAE: No. (number of observations) ([4]; single oral dose 60 mg (N=6)): 2 | Hypersomnia, drug related TEAE: N (%) (number of subjects) ([4]; single oral dose 60 mg (N=6)): 1 (16.7) N (%) | Hypersomnia, drug related TEAE: No. (number of observations) ([4]; single oral dose 60 mg (N=6)): 1 | Nervous System Disorders, drug related TEAEs: N (%) (number of subjects) ([4]; single oral dose 60 mg (N=6)): 2 (33.3) N (%) | Nervous System Disorders, drug related TEAEs: No. (number of observations) ([4]; single oral dose 60 mg (N=6)): 3 | Postural Dizziness, drug related TEAE: N (%) (number of subjects) ([4]; single oral dose 60 mg (N=6)): 1 (16.7) N (%) | Postural Dizziness, drug related TEAE: No. (number of observations) ([4]; single oral dose 60 mg (N=6)): 1 | All drug related TEAEs: N (%) (number of subjects) ([4]; single oral dose 80 mg (N=6)): 4 (66.7) N (%) | All drug related TEAEs: No. (number of observations) ([4]; single oral dose 80 mg (N=6)): 8 | Dizziness, drug related TEAE: N (%) (number of subjects) ([4]; single oral dose 80 mg (N=6)): 2 (33.3) N (%) | Dizziness, drug related TEAE: No. (number of observations) ([4]; single oral dose 80 mg (N=6)): 2 | Headache, drug related TEAE: N (%) (number of subjects) ([4]; single oral dose 80 mg (N=6)): 1 (16.7) N (%) | Headache, drug related TEAE: No. (number of observations) ([4]; single oral dose 80 mg (N=6)): 1 | Hypersomnia, drug related TEAE: N (%) (number of subjects) ([4]; single oral dose 80 mg (N=6)): 2 (33.3) N (%) | Hypersomnia, drug related TEAE: No. (number of observations) ([4]; single oral dose 80 mg (N=6)): 2 | Irritability, drug related TEAE: N (%) (number of subjects) ([4]; single oral dose 80 mg (N=6)): 1 (16.7) N (%) | Irritability, drug related TEAE: No. (number of observations) ([4]; single oral dose 80 mg (N=6)): 1 | Nervous System Disorders, drug related TEAEs: N (%) (number of subjects) ([4]; single oral dose 80 mg (N=6)): 4 (66.7) N (%) | Nervous System Disorders, drug related TEAEs: No. (number of observations) ([4]; single oral dose 80 mg (N=6)): 7 | Psychiatric Disorders, drug related TEAEs: N (%) (number of subjects) ([4]; single oral dose 80 mg (N=6)): 1 (16.7) N (%) | Psychiatric Disorders, drug related TEAEs: No. (number of observations) ([4]; single oral dose 80 mg (N=6)): 1 | Somnolence, drug related TEAE: N (%) (number of subjects) ([4]; single oral dose 80 mg (N=6)): 2 (33.3) N (%) | Somnolence, drug related TEAE: No. (number of observations) ([4]; single oral dose 80 mg (N=6)): 2 | intensity of drug related TEAEs ([4]; single oral doses 0.3-80 mg): mild in intensity | neurological examination ([4]; single oral doses 0.3-80 mg): No abnormalities were found | serious adverse events (SAEs) ([4]; single oral doses 0.3-80 mg): no serious adverse events | safety and tolerability of single oral dose ([4]; up to 80 mg, healthy male subjects): safe and well tolerated
